This series is classed as physicochemical. As to the method: 200 mls water was poured into a jacketed glass vessel and allowed to reach 25 C. A Grant recirculator was used to maintain the temperature at 25 C+/−1 C. A magnetic stirrer at a set speed was used to stir the water. The specified weight of granules was then added to the water and allowed to disperse for 30 seconds before a timer was started. A 2 mls sample was removed using a syringe after 5 minutes and filtered using a 0.45 micron syringe filter. The solution was then analysed to determine the active concentration using a HPLC method.

Take `COc1nc(C)nc(NC(=O)NS(=O)(=O)c2ccccc2Cl)n1` [Airmilled technical, Chlorsulfuron]: the “solubility in distilled water (in words)” value is “not readily soluble”. In addition, where the note is “chlorsulfuron, dilution rate 91 mgs a.i./L, distilled water, 25 C”, the “% active added to water that dissolved after 5 minutes” value was less than 2%.

(Values after US6872689B1, “Water-dispersible agrochemical compositions” (Agform, Ltd., priority 1999, dated 2005).)
